The conditions of data set [1]: snar bond.
Data set [2] has as its target CFTR-mediated chloride transport (Homo sapiens, UniProt P13569). As to the kind of experiment: Corrector Assay A - membrane potential dye assay (enteroid cells). As to conditions: for Corrector Assay A % activity: % of chloride transport of triple combination control (1 μM (14S)-dispiro macrocycle + 3 μM tezacaftor + 300 nM ivacaftor); for EC50: read-out: Corrector Assay A EC50, human intestinal enteroid cells, 18-24 h incubation, acute 10 μM forskolin + 300 nM ivacaftor.

[3] abbreviates: from CC1(C)C[C@H](CCC(Nc2cccc(S(=O)(=O)NC(=O)c3ccc(C(C)(C)C)nc3F)n2)c2cccc(Br)n2)CN1, 15-membered ring, K2CO3, NMP, 21.9 mM, 165.0 °C, 16.0 h.

Structures are written as SMILES. Where “and” joins values, the source holds several entries; their conditions need not be identical. Equal entries are not always repeated. Where two headings read alike, the source gives them in different places.

Regarding `CC(C)COc1cc(F)cc(-c2ccc3c(n2)N2C[C@@H](CCC(c4ccccn4)Nc4cccc(n4)S(=O)(=O)NC3=O)CC2(C)C)c1` (some centres unmarked), the ring closure, yield after HPLC in data set [1] (from CC(C)COc1cc(F)cc(-c2ccc(C(=O)NS(=O)(=O)c3cccc(NC(CC[C@@H]4CN(C(=O)OC(C)(C)C)C(C)(C)C4)c4ccccn4)n3)c(Cl)n2)c1, 15-membered ring, K2CO3, NMP, 38.2 mM, 140.0 °C, 2 steps) was 18% and 31%. Usually EC50 stands for the midpoint of the concentration-response curve. Take `CC(C)(C)c1ccc2c(n1)N1C[C@@H](CC[C@H](c3cccc(Br)n3)Nc3cccc(n3)S(=O)(=O)NC2=O)CC1(C)C` (single isomer, unassigned) [Compound 215]: the ring closure, yield after HPLC in data set [1] (setting [3]) came out at 46%. Also, in data set [2], the “Corrector Assay A % activity” value is given as “+++ (+++ is >60%)” and the EC50 is less than 1000 nM. `CC(C)(C)c1ccc2c(n1)N1C[C@@H](CC[C@@H](c3cccc(Br)n3)Nc3cccc(n3)S(=O)(=O)NC2=O)CC1(C)C` (single isomer, unassigned) [Compound 214] gave a ring closure, yield after HPLC in data set [1] (setting [3]) of 45%. In data set [2], the “Corrector Assay A % activity” value was “++ (++ is 30-60%)” and the EC50 is less than 1000 nM. The compound `CC(C)(C)c1ccc2c(n1)N1CC(CC1(C)C)OCCNc1cccc(n1)S(=O)(=O)NC2=O` (centres unmarked) returned a ring closure, yield after HPLC in data set [1] (from CC(C)(C)OC(=O)N1CC(OCCNc2cccc(S(=O)(=O)NC(=O)c3ccc(C(C)(C)C)nc3F)n2)CC1(C)C, 15-membered ring, K2CO3, NMP, 73.3 mM, 160.0 °C, 2 steps) of 61%. In data set [1] (from CC(C)(C)OC(=O)N1C[C@@H](CCCn2ccc3ccc(S(=O)(=O)NC(=O)c4ccc(C(C)(C)C)nc4Cl)cc32)CC1(C)C, 15-membered ring, K2CO3, NMP, 118.8 mM, 160.0 °C, 2 steps), `CC(C)(C)c1ccc2c(n1)N1C[C@@H](CCCn3ccc4ccc(cc43)S(=O)(=O)NC2=O)CC1(C)C` [Compound 260, (5S)-11-tert-Butyl-7,7-dimethyl-17λ^6-thia-1,8,10,16-tetraazapentacyclo[16.5.2.15,8.09,14.021,24]hexacosa-9(14),10,12,18,20,22,24-heptaene-15,17,17-trione] registered a ring closure, yield after HPLC of 5%. In data set [2], the “Corrector Assay A % activity” value is “+ (+ is <30%)” and the EC50 is less than 1000 nM. With `CC(C)(C)c1ccc2c(n1)N1CC(CCCOc3cccc(c3)S(=O)(=O)NC2=O)CC1(C)C` (centres unmarked), in data set [1] (from CC1(C)CC(CCCOc2cccc(S(=O)(=O)NC(=O)c3ccc(C(C)(C)C)nc3F)c2)CN1, 15-membered ring, K2CO3, NMP, 27.5 mM, 150.0 °C, 16.0 h), the ring closure, yield after HPLC came to 41%. On to `CC1(C)CC2CC(c3ccccc3)CNc3cccc(n3)S(=O)(=O)NC(=O)c3ccc(-n4ccc(OCCC5(C(F)(F)F)CC5)n4)nc3N1C2` (centres unmarked), for which the ring closure, yield after HPLC in data set [1] (from CC(C)(C)OC(=O)N1CC(CC(CNc2cccc(S(=O)(=O)NC(=O)c3ccc(-n4ccc(OCCC5(C(F)(F)F)CC5)n4)nc3Cl)n2)c2ccccc2)CC1(C)C, 15-membered ring, K2CO3/4A MS, DMSO, 44.7 mM, 140.0 °C, 2 steps) came to 60%. As to `CC1(C)CC2CN1c1nc(-n3ccc(OCCC4(C(F)(F)F)CC4)n3)ccc1C(=O)NS(=O)(=O)c1cccc(n1)NCCC2c1ccccc1` (centres unmarked), in data set [1] (from CC1(C)CC(C(CCNc2cccc(S(=O)(=O)NC(=O)c3ccc(-n4ccc(OCCC5(C(F)(F)F)CC5)n4)nc3Cl)n2)c2ccccc2)CN1, 15-membered ring, K2CO3/3A MS, DMSO, 38.4 mM, 155.0 °C, 16.0 h, 2 steps), the ring closure, yield after HPLC was determined as 50%. In the case of `CC1(C)C[C@@H]2CC[C@H](c3cccc(C(F)(F)F)n3)Nc3cccc(n3)S(=O)(=O)NC(=O)c3ccc(Br)nc3N1C2` [Compound 56, (14S,17R)-8-Bromo-12,12-dimethyl-17-[6-(trifluoromethyl)pyridin-2-yl]-2λ^6-thia-3,9,11,18,23-pentaazatetracyclo[17.3.1.111,14.05,10]tetracosa-1(22),5,7,9,19(23),20-hexaene-2,2,4-trione], the ring closure, yield after HPLC in data set [1] (from CC1(C)C[C@@H](CCC(Nc2cccc(S(=O)(=O)NC(=O)c3ccc(Br)nc3Cl)n2)c2cccc(C(F)(F)F)n2)CN1, 15-membered ring, K2CO3, DMA, 98.5 mM, 140.0 °C) is 21%. In data set [2], the “Corrector Assay A % activity” value is “+ (+ is <30%)” and the EC50 was greater than 3000 nM.

Compound `CC(C)(C)c1ccc2c(n1)N1C[C@@H](CCC(c3ccc(Cl)cn3)Nc3cccc(n3)S(=O)(=O)NC2=O)CC1(C)C` (single isomer, unassigned; diastereomer 2) registered a ring closure, yield after HPLC in data set [1] (from CC1(C)C[C@H](CCC(Nc2cccc(S(=O)(=O)NC(=O)c3ccc(C(C)(C)C)nc3F)n2)c2ccc(Cl)cn2)CN1, 15-membered ring, K2CO3/3A MS, NMP, 55.9 mM, 150.0 °C, 4.0 h, 2 steps) of 34%. In data set [1] (from CC(C)(C)OC(=O)N1C[C@@H](CCC(Nc2cccc(S(=O)(=O)NC(=O)c3ccc(C(C)(C)C)nc3F)n2)c2cc(Cl)ccn2)CC1(C)C, 15-membered ring, K2CO3, NMP, 142.0 mM, 140.0 °C, 2 steps), `CC(C)(C)c1ccc2c(n1)N1C[C@@H](CCC(c3cc(Cl)ccn3)Nc3cccc(n3)S(=O)(=O)NC2=O)CC1(C)C` (some centres unmarked) showed a ring closure, yield after HPLC of 43%. Consider `CC(C)(C)OC(=O)N1C[C@@H](CCC(c2ccccc2)n2ccc(S(=O)(=O)NC(=O)c3ccc(C(C)(C)C)nc3Cl)n2)CC1(C)C` (some centres unmarked), for which the ring closure, yield after HPLC in data set [1] (the molecule shown is the open-chain precursor, 14-membered ring, K2CO3, NMP, 74.5 mM, 140.0 °C, 2 steps) was 13%.

In turn, `CC1(C)C[C@@H]2CCC(c3ccc(C(=O)O)cc3)Nc3cccc(n3)S(=O)(=O)NC(=O)c3ccc(-n4ccc(OCCC5(C(F)(F)F)CC5)n4)nc3N1C2` (some centres unmarked) displayed a ring closure, yield after HPLC in data set [1] (from CC1(C)C[C@H](CCC(Nc2cccc(S(=O)(=O)NC(=O)c3ccc(-n4ccc(OCCC5(C(F)(F)F)CC5)n4)nc3Cl)n2)c2ccc(C(=O)O)cc2)CN1, 15-membered ring, K2CO3, NMP, 19.4 mM, 150.0 °C, 18.0 h) of 40%.

On to `CC(C)(C)c1ccc2c(n1)N1C[C@@H](CCC(C3CCN(C(=O)OCc4ccccc4)CC3)Nc3cccc(n3)S(=O)(=O)NC2=O)CC1(C)C` (some centres unmarked), for which the ring closure, yield after HPLC in data set [1] (from CC1(C)C[C@H](CCC(Nc2cccc(S(=O)(=O)NC(=O)c3ccc(C(C)(C)C)nc3F)n2)C2CCN(C(=O)OCc3ccccc3)CC2)CN1, 15-membered ring, K2CO3, NMP, 42.0 mM, 140.0 °C, 16.0 h) was 58%. As for `CC(C)(C)c1ccc2c(n1)N1C[C@@H](CCC(c3ccc(C(=O)O)cc3)Nc3cccc(n3)S(=O)(=O)NC2=O)CC1(C)C` (some centres unmarked), the ring closure, yield after HPLC in data set [1] (from CC1(C)C[C@H](CCC(Nc2cccc(S(=O)(=O)NC(=O)c3ccc(C(C)(C)C)nc3Cl)n2)c2ccc(C(=O)O)cc2)CN1, 15-membered ring, K2CO3, NMP, 26.5 mM, 165.0 °C, 48.0 h) turned out to be 24%.

The values above are taken from patent publication US20220313698A1, “MODULATORS OF CYSTIC FIBROSIS TRANSMEMBRANE CONDUCTANCE REGULATOR” (Vertex Pharmaceuticals Incorporated, priority 2019, published 2022).
